From patent US10196393B2, “JAK inhibitors containing a 4-membered heterocyclic amide” (THERAVANCE BIOPHARMA R&D IP, LLC, priority 2017, dated 2019)

Columns and labels:
JAK1 = JAK1 (Homo sapiens (Human), UniProt P23458); test: Biochemical JAK kinase assay (LanthaScreen), JAK1; details: converted from pIC50 with Cheng-Prusoff equation
Protocol: (§1) Assay 1: Biochemical JAK Kinase Assays
(§2) A panel of four LanthaScreen JAK biochemical assays (JAK1, 2, 3 and Tyk2) were carried in a common kinase reaction buffer (50 mM HEPES, pH 7.5, 0.01% Brij-35, 10 mM MgCl2, and 1 mM EGTA). Recombinant GST-tagged JAK enzymes and a GFP-tagged STAT1 peptide substrate were obtained from Life Technologies.
(§3) Serially diluted compounds were pre-incubated with each of the four JAK enzymes and the substrate in white 384-well microplates (Corning) at ambient temperature for 1 h. ATP was subsequently added to initiate the kinase reactions in 10 μL total volume, with 1% DMSO. […] The plates were allowed to incubate at ambient temperature for 1 h before being read on the EnVision reader (Perkin Elmer).
(§4) For dose-response analysis, percent inhibition data were plotted vs. compound concentrations, and IC50 values were determined from a 4-parameter robust fit model with the Prism software (GraphPad Software). Results were expressed as pIC50 (negative logarithm of IC50) and subsequently converted to pKi (negative logarithm of dissociation constant, Ki) using the Cheng-Prusoff equation.

JAK3 = JAK3 (Homo sapiens (Human), UniProt P52333); test: Biochemical JAK kinase assay (LanthaScreen), JAK3; details: converted from pIC50 with Cheng-Prusoff equation
Protocol: as §1, §2, §3, §4

[1] = system: IL-13 induced STAT6 phosphorylation in BEAS-2B human lung epithelial cells; test: Cellular JAKI potency assay (AlphaScreen), BEAS-2B; type: cell-based; details: Homo sapiens, BEAS-2B cells
Protocol: Assay 2: Cellular JAKI Potency Assay
The AlphaScreen JAKI cellular potency assay was carried out by measuring interleukin-13 (IL-13, R&D Systems) induced STAT6 phosphorylation in BEAS-2B human lung epithelial cells (ATCC). The anti-STAT6 antibody (Cell Signaling Technologies) was conjugated to AlphaScreen acceptor beads (Perkin Elmer), while the anti-pSTAT6 (pTyr641) antibody (Cell Signaling Technologies) was biotinylated using EZ-Link Sulfo-NHS-Biotin (Thermo Scientific).
BEAS-2B cells were grown at 37° C. in a 5% CO2 humidified incubator in 50% DMEM/50% F-12 medium (Life Technologies) supplemented with 10% FBS (Hyclone), 100 U/mL penicillin, 100 μg/mL streptomycin (Life Technologies), and 2 mM GlutaMAX (Life Technologies). On day 1 of the assay, cells were seeded at a 7,500 cells/well density in white poly-D-lysine-coated 384-well plates (Corning) with 25 μL medium, and were allowed to adhere overnight in the incubator. On day 2 of the assay, the medium was removed and replaced with 12 μL of assay buffer (Hank's Balanced Salt Solution/HBSS, 25 mM HEPES, and 1 mg/ml bovine serum albumin/BSA) containing dose-responses of test compounds. Compounds were serially diluted in DMSO and then diluted another 1000-fold in media to bring the final DMSO concentration to 0.1%. Cells were incubated with test compounds at 37° C. for 1 h, and followed by the addition of 12 μl of pre-warmed IL-13 (80 ng/mL in assay buffer) for stimulation. After incubating at 37° C. for 30 min, the assay buffer (containing compound and IL-13) was removed, and 10 μL of cell lysis buffer (25 mM HEPES, 0.1% SDS, 1% NP-40, 5 mM MgCl2, 1.3 mM EDTA, 1 mM EGTA, and supplement with Complete Ultra mini protease inhibitors and PhosSTOP from Roche Diagnostics). The plates were shaken at ambient temperature for 30 min before the addition of detection reagents. A mixture of biotin-anti-pSTAT6 and anti-STAT6 conjugated acceptor beads was added first and incubated at ambient temperature for 2 h, followed by the addition of streptavidin conjugated donor beads (Perkin Elmer). After a minimum of 2 h incubation, the assay plates were read on the EnVision plate reader. AlphaScreen luminescence signals were recorded and utilized to calculate the percent inhibition values based on DMSO and background controls.
For dose-response analysis, percent inhibition data were plotted vs. compound concentrations, and IC50 values were determined from a 4-parameter robust fit model with the Prism software. Results may also be expressed as the negative logarithm of the IC50 value, pIC50.
Test compounds having a lower IC50 value or higher pIC50 value in this assay show greater inhibition of IL-13 induced STAT6 phosphorylation.

[2] = system: IL-13 induced pSTAT6 induction in lung tissue; test: Murine model of IL-13 induced pSTAT6 induction in lung tissue; type: in vivo; details: mouse lung, 1 mg/mL 50 μL oral aspiration, IL-13 challenge 4 h after dose, lungs at 5 hours
From the text: Assay 4: Murine (Mouse) Model of IL-13 Induced pSTAT6 Induction in Lung Tissue
Il-13 is an important cytokine underlying the pathophysiology of asthma (Kudlacz et al. Eur. J. Pharmacol, 2008, 582,154-161). IL-13 binds to cell surface receptors activating members of the Janus family of kinases (JAK) which then phosphorylate STAT6 and subsequently activates further transcription pathways. In the described model, a dose of IL-13 was delivered locally into the lungs of mice to induce the phosphorylation of STAT6 (pSTAT6) which is then measured as the endpoint.
Adult balb/c mice from Harlan were used in the assay. On the day of study, animals were lightly anesthetized with isoflurane and administered either vehicle or test compound (1 mg/mL, 50 μL total volume over several breaths) via oral aspiration. Animals were placed in lateral recumbency post dose and monitored for full recovery from anesthesia before being returned to their home cage. Four hours later, animals were once again briefly anesthetized and challenged with either vehicle or IL-13 (0.03 μg total dose delivered, 50 μL total volume) via oral aspiration before being monitored for recovery from anesthesia and returned to their home cage. One hour after vehicle or IL-13 administration, lungs were collected for both pSTAT6 detection using an anti-pSTAT6 ELISA (rabbit mAb capture/coating antibody; mouse mAb detection/report antibody: anti-pSTAT6-pY641; secondary antibody: anti-mouse IgG-HRP) and analyzed for total drug concentration as described above in Assay 3.
Selected compounds of the invention were tested in the assay. Activity in the model is evidenced by a decrease in the level of pSTAT6 present in the lungs of treated animals at 5 hours compared to the vehicle treated, IL-13 challenged control animals. The difference between the control animals which were vehicle-treated, IL-13 challenged and the control animals which were vehicle-treated, vehicle challenged dictated the 0% and 100% inhibitory effect, respectively, in any given experiment.

[3] = system: Alternaria alternata-induced eosinophilic inflammation of the lung (BALF eosinophils); test: Murine model of Alternaria alternata-induced eosinophilic inflammation of the lung; type: in vivo; details: mouse, oropharyngeal aspiration 0.03-1.0 mg/mL, BALF 48 h after challenge; maximum statistically significant inhibition
From the text: Assay 5: Murine Model of Alternaria alternata-Induced Eosinophilic Inflammation of the Lung
Airway eosinophilia is a hallmark of human asthma. Alternaria alternata is a fungal aeroallergen that can exacerbate asthma in humans and induces eosinophilic inflammation in the lungs of mice (Havaux et al. Clin Exp Immunol. 2005 February; 139(2):179-88).
Seven- to nine-week old male C57 mice from Taconic were used in the study. On the day of study, animals were lightly anesthetized with isoflurane and administered either vehicle or test compound (0.03-1.0 mg/mL, 50 μL total volume over several breaths) via oropharyngeal aspiration. Animals were placed in lateral recumbency post dose and monitored for full recovery from anesthesia before being returned to their home cage. One hour later, animals were once again briefly anesthetized and challenged with either vehicle or alternaria extract (200 ug total extract delivered, 50 μL total volume) via oropharyngeal aspiration before being monitored for recovery from anesthesia and returned to their home cage. Forty-eight hours after alternaria administration, bronchoalveolar lavage fluid (BALF) was collected and eosinophils were counted in the BALF using the Advia 120 Hematology System (Siemens). […]

[4] = Pharmacokinetics in plasma and lung in mouse; details: oral aspiration, 0.2 mg/mL 50 μL, lung AUC (μg hr/g) / plasma AUC (μg hr/mL)

JAK3, sequence (P52333 whole entry): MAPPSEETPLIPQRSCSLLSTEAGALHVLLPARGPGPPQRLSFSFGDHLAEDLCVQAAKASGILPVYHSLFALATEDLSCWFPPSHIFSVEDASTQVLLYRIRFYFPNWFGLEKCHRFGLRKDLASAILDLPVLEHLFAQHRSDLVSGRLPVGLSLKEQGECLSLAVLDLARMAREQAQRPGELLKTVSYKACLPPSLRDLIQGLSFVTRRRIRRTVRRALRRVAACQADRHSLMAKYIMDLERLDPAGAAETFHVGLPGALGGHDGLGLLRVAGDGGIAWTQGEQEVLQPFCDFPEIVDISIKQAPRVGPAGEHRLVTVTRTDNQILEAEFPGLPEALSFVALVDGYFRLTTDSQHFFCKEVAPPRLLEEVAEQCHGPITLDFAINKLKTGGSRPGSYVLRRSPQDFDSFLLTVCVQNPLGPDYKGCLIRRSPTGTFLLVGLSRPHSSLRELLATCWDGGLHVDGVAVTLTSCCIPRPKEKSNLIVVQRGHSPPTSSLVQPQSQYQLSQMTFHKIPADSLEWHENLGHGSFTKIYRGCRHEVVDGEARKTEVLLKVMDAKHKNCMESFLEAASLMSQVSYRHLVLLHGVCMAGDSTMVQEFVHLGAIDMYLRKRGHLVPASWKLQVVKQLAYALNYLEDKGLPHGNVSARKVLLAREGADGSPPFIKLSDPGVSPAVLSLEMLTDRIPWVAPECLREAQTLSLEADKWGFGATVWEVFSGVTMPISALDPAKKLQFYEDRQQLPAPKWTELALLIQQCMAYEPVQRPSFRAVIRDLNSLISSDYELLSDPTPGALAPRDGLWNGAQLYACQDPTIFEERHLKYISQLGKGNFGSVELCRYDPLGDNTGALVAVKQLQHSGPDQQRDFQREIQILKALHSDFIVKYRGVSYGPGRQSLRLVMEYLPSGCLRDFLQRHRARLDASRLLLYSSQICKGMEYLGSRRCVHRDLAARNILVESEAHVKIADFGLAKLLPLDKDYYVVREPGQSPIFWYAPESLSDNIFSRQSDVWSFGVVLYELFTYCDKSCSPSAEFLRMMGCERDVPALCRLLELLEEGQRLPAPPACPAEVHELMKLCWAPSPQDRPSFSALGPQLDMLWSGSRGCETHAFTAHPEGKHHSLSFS
JAK1, sequence (P23458 whole entry): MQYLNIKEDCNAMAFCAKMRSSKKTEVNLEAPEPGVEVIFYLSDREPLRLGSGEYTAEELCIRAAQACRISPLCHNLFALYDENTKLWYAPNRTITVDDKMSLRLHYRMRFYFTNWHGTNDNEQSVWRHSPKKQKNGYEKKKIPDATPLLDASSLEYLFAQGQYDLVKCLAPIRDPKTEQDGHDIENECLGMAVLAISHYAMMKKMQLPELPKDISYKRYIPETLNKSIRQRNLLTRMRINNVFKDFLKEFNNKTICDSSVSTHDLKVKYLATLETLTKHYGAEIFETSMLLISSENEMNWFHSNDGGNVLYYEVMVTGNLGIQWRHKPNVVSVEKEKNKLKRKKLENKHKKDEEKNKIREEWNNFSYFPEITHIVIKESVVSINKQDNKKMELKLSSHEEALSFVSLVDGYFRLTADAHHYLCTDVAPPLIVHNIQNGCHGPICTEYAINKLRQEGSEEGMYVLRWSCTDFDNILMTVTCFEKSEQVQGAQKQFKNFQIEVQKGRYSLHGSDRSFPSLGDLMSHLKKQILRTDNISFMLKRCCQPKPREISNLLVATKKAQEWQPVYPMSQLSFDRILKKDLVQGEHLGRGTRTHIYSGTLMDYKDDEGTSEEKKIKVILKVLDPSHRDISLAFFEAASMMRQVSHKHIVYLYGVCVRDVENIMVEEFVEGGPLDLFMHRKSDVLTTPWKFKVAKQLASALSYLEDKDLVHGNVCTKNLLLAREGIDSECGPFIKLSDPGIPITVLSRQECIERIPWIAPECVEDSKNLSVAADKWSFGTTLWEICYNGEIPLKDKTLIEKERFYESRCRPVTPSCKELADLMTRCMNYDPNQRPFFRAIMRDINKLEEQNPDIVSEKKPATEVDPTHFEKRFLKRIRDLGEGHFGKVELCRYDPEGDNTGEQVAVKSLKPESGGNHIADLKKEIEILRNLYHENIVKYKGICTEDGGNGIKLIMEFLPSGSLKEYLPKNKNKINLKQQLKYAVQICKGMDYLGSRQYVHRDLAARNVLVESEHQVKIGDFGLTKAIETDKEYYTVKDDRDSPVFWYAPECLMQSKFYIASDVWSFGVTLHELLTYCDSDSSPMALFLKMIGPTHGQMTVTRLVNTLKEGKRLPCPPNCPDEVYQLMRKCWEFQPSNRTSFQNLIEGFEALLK

SMILES: CCCN1Cc2[nH]c(-c3n[nH]c4cc(-c5cc(F)c(O)cc5CC)ccc34)nc2C[C@H]1C(=O)N1CC(N(C)C)C1 [Example 4, (S)-(3-(dimethylamino)azetidin-1-yl)(2-(6-(2-ethyl-5-fluoro-4-hydroxyphenyl)-1H-indazol-3-yl)-5-propyl-4,5,6,7-tetrahydro-3H-imidazo[4,5-c]pyridin-6-yl)methanone]
- Ki (JAK1): 0.06 nM
- Ki (JAK3): 0.13 nM
- IC50 [1]: 7.4 nM
- pSTAT6 inhibition Assay 4 [2]: A (A represents between 60% and 80% inhibition)
- Percent Inhibition of Alternaria-induced BALF Eosinophils [3]: 79%
- Lung to Plasma ratio Assay 3 [4]: C (C denotes a ratio between 20 and 50)
